Earlier results on two molecules are cited in EP2698169A1, “A contrast agent-binding polypeptide and use thereof” (Universität Duisburg-Essen, priority 2012, dated 2014).

SMILES strings stand for the structures.

For this data set the following is noted: literature [26]; conventional small molecular contrast agents.

For `O=C([O-])CN1CCN(CC(=O)[O-])CCN(CC(=O)O)CCN(CC(=O)[O-])CC1.[Gd+3]` [DOTA-Gd^3+], the Relaxivities result is given as “below 10 s^-1mM^-1”.

As for `CNC[C@H](O)[C@@H](O)[C@H](O)[C@H](O)CO.CNC[C@H](O)[C@@H](O)[C@H](O)[C@H](O)CO.O=C([O-])CN(CCN(CC(=O)[O-])CC(=O)O)CCN(CC(=O)[O-])CC(=O)O.[Gd+3]` [DTPA-Gd^3+, gadopentetic acid], the Relaxivities entry is given as “below 10 s^-1mM^-1”.
